{
  "source": "paper PMC6271870",
  "about": "“Study on the Synthesis, Biological Activity and Spectroscopy of Naphthalimide-Diamine Conjugates” (Molecules, 2014)",
  "key": {"[1]": {"tested_on": "herring sperm DNA", "experiment": "Iodide (KI) fluorescence quenching in absence and presence of DNA", "format": "binding", "conditions": "KI quencher", "source_text": "A highly negatively charged quencher is expected to be repelled by the negatively charged phosphate backbone of DNA, therefore an intercalative bound drug molecules should be protected from being quenched by anionic quencher, but the free aqueous complexes or groove binding drugs should be quenched readily by anionic quenchers. At the same time, whether the quencher accesses to fluorophore also plays a role in free and bound one.\nNegatively charged I^− was selected for this purpose. The quenching constants (Ksv) were obtained from the Stern–Volmer equation. […]\nSolution of compound 7f (0.5 mL, 2.00 × 10^−4 mol/L and herring sperm DNA 0.5 mL ([…]) in Tris-HCl (pH = 7.4) were mixed with 0.0, 0.10, 0.20, 0.30, 0.60, 0.90 1.20, 1.50, 1.80, 2.10, 2.40, 2.70 and 3.00 of KI (2.0 × 10^−2 mol∙L^−1) respectively. Meanwhile, 0.5 mL solution of compound 7f (2.00 × 10^−4 mol/L was only mixed with 0.0, 0.10, 0.20, 0.30, 0.60, 0.90 1.20, 1.50, 1.80, 2.10, 2.40, 2.70 and 3.00 mL of KI (2.0 × 10^−2 mol∙L^−1) respectively. The mixture was diluted to 5 mL with Tris-HCl (pH = 7.4). Thus, samples were prepared in the concentration of KI at 0.0, 400, 800, 1,200, 2,400, 3,600, 4,800, 6,000, 7,200, 8,400, 9,600, 10,800, 12,000 × 10^−6 mol∙L^−1. […] Fluorescence wavelengths and intensity areas of samples were measured at following conditions: EX = 345 nm, EM = 355~600 nm."}, "[2]": {"tested_on": "HepG2 cells", "experiment": "Cell cycle analysis by High Content Screening (PI staining)", "format": "cell-based", "conditions": "HepG2, 20 μM, 48 h", "procedure": "To reveal the cytotoxic mechanism of compound 7f, we ﬁrst examined its effects on the cell cycle perturbation. The DNA content analysis by High Content Screening (HCS) confirmed that 7f could induce HepG2 cell cycle perturbation (Figure 3).\nExponentially growing HepG2 cells were seeded in 96 well plates ([…]), cultured for 24 h and then treated with different concentrations of compound 7f for 48 h. After incubation for 48 h, cells were washed twice with ice-cold 10% PBS, fixed and permeabilized with ice-cold 70% ethanol at −20 °C overnight. The cells were treated with 50 μg/mL RNase A at room temperature for 30 min after washed with ice-cold PBS, and finally stained with 50 μg/mL propidium iodide (PI) in the dark at 4 °C for 30 min. The distribution of cell cycle phases with different DNA contents was read in image analysis system of high content screening living cells."}, "[3]": {"tested_on": "human normal hepatocyte QSG-7701", "experiment": "MTT assay, QSG-7701 cells", "format": "cell-based", "conditions": "QSG7701, aminoguanidine present, mean ± SD of three determinations, max 50 µM tested", "procedure": "The cytotoxicities of the novel conjugates were assessed in vitro by the MTT assay in the presence of aminoguanidine (an inhibitor of amine oxidase) against three cell lines, human leukemia K562, cancer of colon HCT116 and human normal hepatocyte QSG-7701 [34]. […] Thus, compound 7f was selected for further investigation. Cell lines, K562, 7721 and HCT116 were obtained from American Type Culture Collection (ATCC, Shanghai, China). Cells were cultured in RPMI1640, supplemented with 10% heat-inactivated fetal calf serum (FCS), antibiotics (penicillin, 100 units/mL; streptomycin sulfate, 100 μg/mL) at 37 °C, in an atmosphere of 95% air and 5% CO2 under humidified conditions. Aminoguanidine (1 mM) was added as an inhibitor of amine oxidase derived from FCS and had no effect on the various parameters of the cell measured in this study. In addition, exponentially growing HCT116 or 7721 cells were seeded into 96-well plates at 5000 cells/well and allowed to attach overnight, and then 100 μL of MTT (1 mg/mL) was added. After incubation for 4 h at 37 °C, the MTT solution was removed and the remaining formazan crystals were dissolved with 150 μL DMSO in each well. The absorbance of each well was then read at 570 nm."}, "[4]": {"tested_on": "HepG2 cells", "experiment": "Apoptosis by Hoechst 33342 staining, laser scanning confocal microscope", "format": "cell-based", "conditions": "HepG2, 20 μM, 48 h, 200 cells counted; control less than five percent", "source_text": "Apoptosis, or namely programmed cell death, can be triggered by several stimuli. Both naphthalimides and polyamine derivatives could trigger cell apoptosis. In order to determine whether the antitumor-proliferative effect of compound 7f was associated with cell apoptosis, the HepG2 cell apoptosis was detected by the staining of DNA with Hoechst 33342, and the apoptotic cells were counted by selecting 200 cells randomly (Figure 4). The apoptotic bodies were observed clearly in 7f-treated groups by laser scanning confocal microscope. 7f could trigger apoptosis in a dose-dependent manner with the 47.0% apoptotic ratio of 7f at 20 μM compared with the less than five percent in the control group. Exponentially growing HepG2 cells were seeded in 96 well plates (6 × 10^4 cells/well) and treated with indicated concentrations of 7f. After incubated for 48 h, cells were washed three times with PBS, and finally stained with 10 μM Hoechst 33342 in the dark at 37 °C for 20 min. They were detected by laser scanning confocal microscope and the apoptotic cells were count by selecting 200 cells randomly."}},
  "data": [
    {"smiles": "Cl.Cl.NCCCCNCCCN1C(=O)c2cccc3cccc(c23)C1=O", "note": "[Compound 7f, 2-[3-(4-Aminobutylamino)propyl]1H-benz-[de]isoquinoline-1,3(2H)-dione dihydrochloride]", "values": [
      {"measurement": "Ksv with I^− ion", "setting": "[1]; absence of DNA, 7f 20 × 10^−6 mol∙L^−1", "result": 38.178, "unit": "L/mol"},
      {"measurement": "Ksv with I^− ion", "setting": "[1]; presence of DNA 22.84 × 10^−6 mol∙L^−1, 7f 20 × 10^−6 mol∙L^−1", "result": 31.575, "unit": "L/mol"},
      {"measurement": "cells in G2/M phase", "setting": "[2]", "result": 49.8, "unit": "%"},
      {"measurement": "cells in G0/G1 phase", "setting": "[2]; control 52.6%", "result": 29.7, "unit": "%"},
      {"measurement": "IC50", "setting": "[3]", "result": "19.7 ± 3.42", "unit": "µM"},
      {"measurement": "apoptotic ratio", "setting": "[4]", "result": 47.0, "unit": "%"}
    ]}
  ]
}
